What is called pIC50 is the IC50 on a negative log10 scale, so that one unit is a factor of ten. A high value points to a small IC50.

Structures are written as SMILES. pIC50: −log10 of the molar value. Where a SMILES comes first, the peptide text is derived from it. Bridges are numbered along the chain shown (N, C = ends). [ ]: non-standard residue; d: D form. Phe(4-Cl) = N[C@@H](Cc1ccc(Cl)cc1)C(=O)O; Dap = NC[C@H](N)C(=O)O

Tested on in one data set: not given
Experiment: not given
The note with it: amide bond; BOP/HOBt/DIEA; NMP; 80.0 h; 9 steps.
For `CC(C)[C@H](NC(=O)[C@H](Cc1c[nH]c2ccccc12)NC(=O)[C@@H](NC(=O)[C@H](Cc1c[nH]c2ccccc12)NC(=O)[C@@H]1CC(=O)NC[C@H](NC(=O)[C@H](CCCCN)NC(=O)[C@@H](N)CCCNC(=N)N)C(=O)NCC(=O)NCC(=O)N1)[C@@H](C)O)C(N)=O`, the ring closure, yield of all isomers was determined as 8.5%.

The data set is the same for the next values; noted with them: from CC(C)[C@@H](NC(=O)[C@@H](Cc1c[nH]c2ccccc12)NC(=O)[C@H](NC(=O)[C@@H](Cc1c[nH]c2ccccc12)NC(=O)[C@@H](CS)NC(=O)[C@H](Cc1ccccc1)NC(=O)CCNC(=O)[C@@H](CS)NC(=O)[C@@H](CCCCN)NC(=O)[C@H](N)CCCNC(=N)N)[C@H](C)O)C(N)=O; disulfide bond; air, Cu wire, ammonium acetate pH 8.5; water; 0.842 mM; 22.0 h.
`CC(C)[C@@H](NC(=O)[C@@H](Cc1c[nH]c2ccccc12)NC(=O)[C@H](NC(=O)[C@@H](Cc1c[nH]c2ccccc12)NC(=O)[C@H]1CSSC[C@@H](NC(=O)[C@@H](CCCCN)NC(=O)[C@H](N)CCCNC(=N)N)C(=O)NCCC(=O)N[C@@H](Cc2ccccc2)C(=O)N1)[C@H](C)O)C(N)=O`: the ring closure, yield of all isomers was determined as 8.1%.

Another data set has as its target T1, P-selectin (Homo sapiens, UniProt P16109).
T1 construct: P-selectin is isolated from human platelet lysates; from tissue; host or cells: human platelets (outdated platelet packs from a blood bank)
T1 sequence (P16109 42-830): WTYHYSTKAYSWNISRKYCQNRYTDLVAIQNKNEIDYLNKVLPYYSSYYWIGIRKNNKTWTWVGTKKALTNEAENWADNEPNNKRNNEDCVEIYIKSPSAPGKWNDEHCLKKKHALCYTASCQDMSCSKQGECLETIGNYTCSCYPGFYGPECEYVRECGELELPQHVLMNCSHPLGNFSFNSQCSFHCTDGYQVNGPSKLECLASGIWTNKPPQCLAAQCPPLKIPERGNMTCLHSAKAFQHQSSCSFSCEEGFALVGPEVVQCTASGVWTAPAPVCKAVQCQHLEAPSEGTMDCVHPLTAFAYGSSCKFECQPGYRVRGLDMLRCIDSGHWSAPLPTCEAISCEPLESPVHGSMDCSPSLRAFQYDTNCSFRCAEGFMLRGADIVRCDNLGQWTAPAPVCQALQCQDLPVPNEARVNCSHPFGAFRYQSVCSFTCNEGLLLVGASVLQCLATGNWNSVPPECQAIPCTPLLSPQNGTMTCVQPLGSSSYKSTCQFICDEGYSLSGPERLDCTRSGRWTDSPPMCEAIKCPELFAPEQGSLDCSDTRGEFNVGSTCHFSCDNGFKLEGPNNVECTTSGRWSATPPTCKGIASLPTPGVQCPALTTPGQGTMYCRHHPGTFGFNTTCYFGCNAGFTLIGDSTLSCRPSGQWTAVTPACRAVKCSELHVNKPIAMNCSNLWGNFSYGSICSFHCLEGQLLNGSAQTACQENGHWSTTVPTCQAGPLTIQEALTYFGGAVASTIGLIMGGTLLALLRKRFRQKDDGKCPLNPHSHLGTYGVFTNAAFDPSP
The data set can be described thus: Inhibition of human neutrophil adhesion to purified P-selectin immobilized on plastic wells. The data set is classed as cell-based. The note with it: human neutrophils, purified human P-selectin. Summed up: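 Isolated human neutrophils (2×10^5 per well) in HBSS with Ca2+/Mg2+ and HSA added to wells coated overnight at 4° C with platelet-derived P-selectin (5 micrograms/mL), HSA-blocked; 20 min at 22° C. Nonadherent cells removed by inverted centrifugation at 150 g; adherent cells quantified by myeloperoxidase activity.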
Turning to `CC[C@H](C)[C@H](NC(=O)[C@H](CCCCN)NC(=O)[C@@H](N)CCCNC(=N)N)C(=O)NCC(=O)NCC(=O)N[C@H]1CCCCNC(=O)CC[C@@H](C(N)=O)NC(=O)[C@H](Cc2c[nH]c3ccccc23)NC(=O)[C@H]([C@@H](C)O)NC(=O)[C@H](Cc2c[nH]c3ccccc23)NC1=O` [SEQ ID NO:1, Arg-Lys-Ile-Gly-Gly-cyclo(Lys-Trp-Thr-Trp-Glu)-NH2] (H-RKIGGKWTWE-NH2; lactam 6-10), the “biological activity / inhibiting neutrophil adhesion to P-selectin (result in words)” value was “inactive”.
Same read-out and setting: the same measure for `CC[C@H](C)[C@H](NC(=O)[C@H](CCCCN)NC(=O)[C@@H](N)CCCNC(=N)N)C(=O)NCC(=O)NCC(=O)N[C@H]1CCC(=O)NCCCC[C@@H](C(N)=O)NC(=O)[C@H](Cc2c[nH]c3ccccc23)NC(=O)[C@H]([C@@H](C)O)NC(=O)[C@H](Cc2c[nH]c3ccccc23)NC1=O` [SEQ ID NO:2, Arg-Lys-Ile-Gly-Gly-cyclo(Glu-Trp-Thr-Trp-Lys)-NH2] (H-RKIGGEWTWK-NH2; lactam 6-10): “inactive”; for `CC(C)[C@H](NC(=O)[C@H](Cc1c[nH]c2ccccc12)NC(=O)[C@@H](NC(=O)[C@H](Cc1c[nH]c2ccccc12)NC(=O)[C@@H]1CNC(=O)C[C@H](NC(=O)[C@H](CCCCN)NC(=O)[C@@H](N)CCCNC(=N)N)C(=O)NCC(=O)NCC(=O)N1)[C@@H](C)O)C(N)=O` [SEQ ID NO:3, Arg-Lys-cyclo(Asp-Gly-Gly-Dap)-Trp-Thr-Trp-Val-NH2] (H-RKDGG[Dap]WTWV-NH2; lactam 3-6): “totally inactive”.

Still in this data set, the particulars now being: inhibiting the binding of human neutrophils to P-selectin.
The compound `CC[C@@H](C)[C@@H](NC(=O)[C@@H](CCCCN)NC(=O)[C@H](N)CCCNC(=N)N)C(=O)NCC(=O)N[C@@H]1CSSC[C@H](C(=O)N[C@@H](C(=O)N[C@@H](C(N)=O)C(C)C)[C@H](C)O)NC(=O)[C@@H](Cc2c[nH]c3ccccc23)NC(=O)[C@@H]([C@H](C)CC)NC1=O` [(108)] (H-[dR][dK][dI]G[dC][dI][dW][dC][dT][dV]-NH2; disulfide 5-8) had a negative-log IC50 (pIC50) of 4.62.
Compound `CC[C@@H](C)[C@@H](NC(=O)CNC(=O)[C@H]1CSSC[C@@H](N)C(=O)N[C@H](CCCCN)C(=O)N[C@H]([C@H](C)CC)C(=O)N1)C(=O)N[C@H](Cc1c[nH]c2ccccc12)C(=O)N[C@@H](C(=O)N[C@H](Cc1c[nH]c2ccccc12)C(=O)N[C@@H](C(N)=O)C(C)C)[C@H](C)O` [(109)] (H-[dC][dK][dI][dC]G[dI][dW][dT][dW][dV]-NH2; disulfide 1-4) showed a negative-log IC50 (pIC50) of 4.47.
`CC(C)[C@@H](NC(=O)[C@@H](Cc1c[nH]c2ccccc12)NC(=O)[C@H](NC(=O)[C@@H](Cc1c[nH]c2ccccc12)NC(=O)[C@H]1CSSC[C@@H](NC(=O)[C@@H](C)NC(=O)[C@H](N)CCCNC(=N)N)C(=O)NCC(=O)N[C@@H](Cc2ccccc2)C(=O)N1)[C@H](C)O)C(N)=O` [(110)] (H-[dR][dA][dC]GF[dC][dW][dT][dW][dV]-NH2; disulfide 3-6) had a negative-log IC50 (pIC50) of 4.28.
For the compound `CC(C)[C@@H](NC(=O)[C@@H](Cc1c[nH]c2ccccc12)NC(=O)[C@H](NC(=O)[C@@H](Cc1c[nH]c2ccccc12)NC(=O)[C@H]1CSSC[C@@H](NC(=O)[C@@H](CCC(N)=O)NC(=O)[C@H](N)CCCNC(=N)N)C(=O)NCC(=O)N[C@@H](Cc2ccccc2)C(=O)N1)[C@H](C)O)C(N)=O` [(111)] (H-[dR][dQ][dC]GF[dC][dW][dT][dW][dV]-NH2; disulfide 3-6), the negative logarithm of the IC50 (pIC50) is 4.74.
`CC(C)[C@@H](NC(=O)[C@@H](Cc1c[nH]c2ccccc12)NC(=O)[C@H](NC(=O)[C@@H](Cc1c[nH]c2ccccc12)NC(=O)[C@H]1CSSC[C@@H](NC(=O)[C@@H](CCC(=O)O)NC(=O)[C@H](N)CCCNC(=N)N)C(=O)NCC(=O)N[C@@H](Cc2ccccc2)C(=O)N1)[C@H](C)O)C(N)=O` [(112)] (H-[dR][dE][dC]GF[dC][dW][dT][dW][dV]-NH2; disulfide 3-6) gave a pIC50 of 3.63.
Same read-out and setting: the figure for `CC(C)[C@@H](NC(=O)[C@@H](Cc1c[nH]c2ccccc12)NC(=O)[C@H](NC(=O)[C@@H](Cc1c[nH]c2ccccc12)NC(=O)[C@@H]1CSSC[C@H](NC(=O)[C@@H](CCCCN)NC(=O)[C@H](N)CCCNC(=N)N)C(=O)NCC(=O)NCC(=O)N1)[C@H](C)O)C(N)=O` [(113)] (H-[dR][dK]CGGC[dW][dT][dW][dV]-NH2; disulfide 3-6) is 6.15; for `CC(C)[C@@H](NC(=O)[C@@H](Cc1c[nH]c2ccccc12)NC(=O)[C@H](NC(=O)[C@@H](Cc1c[nH]c2ccccc12)NC(=O)[C@H]1CSSC[C@@H](NC(=O)[C@@H](CCCCN)NC(=O)[C@H](N)CCCNC(=N)N)C(=O)N[C@H](CCC(N)=O)C(=O)N[C@@H](CCC(N)=O)C(=O)N1)[C@H](C)O)C(N)=O` [(114)] (H-[dR][dK][dC][dQ]Q[dC][dW][dT][dW][dV]-NH2; disulfide 3-6) it is 4.92.
With `CC(C)[C@@H](NC(=O)[C@@H](Cc1c[nH]c2ccccc12)NC(=O)[C@H](NC(=O)[C@@H](Cc1c[nH]c2ccccc12)NC(=O)[C@H]1CSSC[C@@H](NC(=O)[C@@H](CCCCN)NC(=O)[C@H](N)CCCNC(=N)N)C(=O)NCC(=O)N[C@@H](Cc2ccc(Cl)cc2)C(=O)N1)[C@H](C)O)C(N)=O` [(115)] (H-[dR][dK][dC]G[Phe(4-Cl)][dC][dW][dT][dW][dV]-NH2; disulfide 3-6), the pIC50 was 5.82.
Same read-out and setting: the same measure for `CC(C)[C@@H](NC(=O)[C@@H](Cc1c[nH]c2ccccc12)NC(=O)[C@H](NC(=O)[C@@H](Cc1c[nH]c2ccccc12)NC(=O)[C@H]1CSSC[C@@H](NC(=O)[C@@H](CCCCN)NC(=O)[C@H](N)CCCNC(=N)N)C(=O)NCC(=O)N[C@H](C(C)C)C(=O)N1)[C@H](C)O)C(N)=O` [(116)] (H-[dR][dK][dC]G[dV][dC][dW][dT][dW][dV]-NH2; disulfide 3-6): 5.34; for `CC(C)[C@@H](NC(=O)[C@@H](Cc1c[nH]c2ccccc12)NC(=O)[C@H](NC(=O)[C@@H](Cc1c[nH]c2ccccc12)NC(=O)[C@H]1CSSC[C@@H](NC(=O)[C@@H](CCCCN)NC(=O)[C@H](N)CC(=O)O)C(=O)NCC(=O)N[C@@H](Cc2ccccc2)C(=O)N1)[C@H](C)O)C(N)=O` [(117)] (H-[dD][dK][dC]GF[dC][dW][dT][dW][dV]-NH2; disulfide 3-6): 3.62.
On the same count and under the same terms, the same measure for `CC[C@H](C)[C@@H]1NC(=O)[C@H](CCCCN)NC(=O)[C@@H](N)CCC(=O)NCCCC[C@@H](C(=O)N[C@@H](Cc2c[nH]c3ccccc23)C(=O)N[C@H](C(=O)N[C@@H](Cc2c[nH]c3ccccc23)C(=O)N[C@H](C(N)=O)C(C)C)[C@@H](C)O)NC(=O)CNC(=O)CNC1=O` [Preferred peptide (1), Cyclo(glutamyl-lysyl-isoleucyl-glycyl-glycyl-lysyl)-tryptophyl-threonyl-tryptophyl-valine-amide] (H-EKIGGKWTWV-NH2; lactam 1-6): 3.94.

The same data set, now with this note: stated in text as 'active at'.
Take `CC(C)[C@H](NC(=O)[C@H](Cc1c[nH]c2ccccc12)NC(=O)[C@@H](NC(=O)[C@H](Cc1c[nH]c2ccccc12)NC(=O)[C@@H]1CC(=O)NC[C@H](NC(=O)[C@H](CCCCN)NC(=O)[C@@H](N)CCCNC(=N)N)C(=O)NCC(=O)NCC(=O)N1)[C@@H](C)O)C(N)=O` [Preferred peptide (22), Arginyl-lysyl-cyclo(diaminopropionyl-glycyl-glycyl-aspartyl)-tryptophyl-threonyl-tryptophyl-valine-amide] (H-RK[Dap]GGDWTWV-NH2; lactam 3-6): the “concentration at which active in inhibiting neutrophil adhesion to P-selectin” value came out at 13 mM.

(Values after patent US5753617A, “Peptide inhibitors of cellular adhesion” (Centocor, Inc., priority 1995, dated 1998).)
